Measurements as given in patent US20250034216A1, “STEREOSELECTIVE COVALENT LIGANDS FOR ONCOGENIC AND IMMUNOLOGICAL PROTEINS” (The Scripps Research Institute, priority 2021, published 2025).

Legend:
Test in all cases: IA-DTB cysteine engagement
Format in all cases: binding
Conditions in all cases: 22Rv1 cells, 20 μM probe, 1 h, relative to DMSO
ANGEL1_C27 = target: T1, ANGEL1_C27 (Homo sapiens, UniProt Q9UNK9)
T1 construct: endogenous in cells; host or cells: 22Rv1
T1 sequence (Q9UNK9 1-670): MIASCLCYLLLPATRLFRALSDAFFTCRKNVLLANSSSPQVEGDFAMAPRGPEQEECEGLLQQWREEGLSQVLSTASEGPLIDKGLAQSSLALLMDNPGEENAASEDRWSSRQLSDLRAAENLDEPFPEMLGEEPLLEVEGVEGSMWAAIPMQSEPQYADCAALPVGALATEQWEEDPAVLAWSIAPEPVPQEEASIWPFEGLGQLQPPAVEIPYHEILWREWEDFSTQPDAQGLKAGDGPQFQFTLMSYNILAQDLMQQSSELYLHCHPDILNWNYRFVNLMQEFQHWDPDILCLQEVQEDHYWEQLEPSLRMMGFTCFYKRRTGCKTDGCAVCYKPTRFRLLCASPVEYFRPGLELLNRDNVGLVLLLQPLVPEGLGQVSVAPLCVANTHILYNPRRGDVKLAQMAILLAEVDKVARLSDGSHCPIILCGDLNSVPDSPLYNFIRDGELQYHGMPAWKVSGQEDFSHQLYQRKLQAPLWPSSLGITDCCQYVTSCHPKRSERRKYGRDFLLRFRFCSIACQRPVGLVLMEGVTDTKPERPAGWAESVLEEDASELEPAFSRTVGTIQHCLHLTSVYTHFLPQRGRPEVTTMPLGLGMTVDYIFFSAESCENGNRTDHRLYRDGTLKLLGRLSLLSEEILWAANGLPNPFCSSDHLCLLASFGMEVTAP
Procedure, shortened: (§1)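 First, cells are exposed to electrophilic probes in situ. Next, lysates are labeled with IA-DTB (1 h, ambient temperature), reduced, alkylated and trypsin-digested. Then, IA-DTB peptides are enriched on streptavidin, TMT-labeled and analyzed, with ratios taken against DMSO channels.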

DCUN1D4_C219 = target: T2, DCUN1D4_C219 (Homo sapiens, UniProt Q92564)
T2 construct: endogenous in cells; host or cells: 22Rv1
T2 sequence (Q92564 1-292): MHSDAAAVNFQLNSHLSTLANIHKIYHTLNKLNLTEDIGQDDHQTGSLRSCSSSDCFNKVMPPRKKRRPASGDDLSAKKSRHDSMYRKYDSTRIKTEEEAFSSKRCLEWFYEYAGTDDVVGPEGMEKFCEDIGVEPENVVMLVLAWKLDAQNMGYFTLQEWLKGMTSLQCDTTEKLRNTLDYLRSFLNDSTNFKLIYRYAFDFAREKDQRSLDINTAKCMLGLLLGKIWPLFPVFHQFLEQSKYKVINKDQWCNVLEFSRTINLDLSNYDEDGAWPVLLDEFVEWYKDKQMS
Procedure, shortened: as §1

GPAT3_C306 = target: T3, GPAT3_C306 (Homo sapiens, UniProt Q53EU6)
T3 construct: endogenous in cells; host or cells: 22Rv1
T3 sequence (Q53EU6 1-434): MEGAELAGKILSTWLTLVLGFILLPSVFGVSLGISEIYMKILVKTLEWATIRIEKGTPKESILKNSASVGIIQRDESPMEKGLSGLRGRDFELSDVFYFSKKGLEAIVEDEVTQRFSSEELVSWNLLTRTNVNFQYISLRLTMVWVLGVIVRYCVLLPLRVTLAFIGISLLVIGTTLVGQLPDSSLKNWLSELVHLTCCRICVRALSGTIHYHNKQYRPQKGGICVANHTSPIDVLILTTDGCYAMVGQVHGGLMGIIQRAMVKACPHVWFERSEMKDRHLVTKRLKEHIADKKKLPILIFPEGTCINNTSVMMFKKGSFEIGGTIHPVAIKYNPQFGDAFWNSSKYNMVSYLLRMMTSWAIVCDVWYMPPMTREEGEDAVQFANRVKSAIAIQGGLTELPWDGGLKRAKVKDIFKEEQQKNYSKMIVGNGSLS
Procedure, shortened: as §1

% engagement ANGEL1_C27 (ANGEL1_C27) [%] | % engagement DCUN1D4_C219 (DCUN1D4_C219) [%] | % engagement GPAT3_C306 (GPAT3_C306) [%] | SMILES
63 | 45.5 | 75.75 | C=CC(=O)N1C[C@@H](c2ccc(Br)cc2)[C@H]1C(=O)Nc1cccc2cccnc12 [MY-1A, (2S,3R)-1-acryloyl-3-(4-bromophenyl)-N-(quinolin-8-yl)azetidine-2-carboxamide]
66.5 | 82.5 | 81.5 | C=CC(=O)N1C[C@H](c2ccc(Br)cc2)[C@@H]1C(=O)Nc1cccc2cccnc12 [MY-1B, (2R,3S)-1-acryloyl-3-(4-bromophenyl)-N-(quinolin-8-yl)azetidine-2-carboxamide]
54.5 | −17 | 100 | C=CC(=O)N1C[C@H](c2ccc(Br)cc2)[C@H]1C(=O)Nc1cccc2cccnc12 [MY-3B, (2S,3S)-1-acryloyl-3-(4-bromophenyl)-N-(quinolin-8-yl)azetidine-2-carboxamide]
45.5 | 33.5 | 57 | C=CC(=O)N1C[C@H](c2ccc(Br)cc2)[C@H]1C(=O)Nc1cccc2cccnc12 [MY-3A, (2S,3S)-1-acryloyl-3-(4-bromophenyl)-N-(quinolin-8-yl)azetidine-2-carboxamide]
